According to patent publication US20220220135A1 (BAR-ILAN UNIVERSITY, priority 2019, published 2022):

Tests used:
[1] = Chemical stability under acidic and basic conditions by 31P-NMR
Text: To evaluate the chemical stability of uridine-5′-Pα,α-dithiophosphate analogues, we measured by 31P-NMR the time-dependent percentage of the analogues remaining under basic and acidic conditions, and due to air-oxidation.

NTPDase1 = target: T1, NTPDase1 (Homo sapiens, UniProt P49961); test: Inhibition of ATPase activity of human NTPDase1; type: biochemical; settings: analogue at 100 μM; ATP 100 μM as substrate
T1 sequence (P49961 1-510): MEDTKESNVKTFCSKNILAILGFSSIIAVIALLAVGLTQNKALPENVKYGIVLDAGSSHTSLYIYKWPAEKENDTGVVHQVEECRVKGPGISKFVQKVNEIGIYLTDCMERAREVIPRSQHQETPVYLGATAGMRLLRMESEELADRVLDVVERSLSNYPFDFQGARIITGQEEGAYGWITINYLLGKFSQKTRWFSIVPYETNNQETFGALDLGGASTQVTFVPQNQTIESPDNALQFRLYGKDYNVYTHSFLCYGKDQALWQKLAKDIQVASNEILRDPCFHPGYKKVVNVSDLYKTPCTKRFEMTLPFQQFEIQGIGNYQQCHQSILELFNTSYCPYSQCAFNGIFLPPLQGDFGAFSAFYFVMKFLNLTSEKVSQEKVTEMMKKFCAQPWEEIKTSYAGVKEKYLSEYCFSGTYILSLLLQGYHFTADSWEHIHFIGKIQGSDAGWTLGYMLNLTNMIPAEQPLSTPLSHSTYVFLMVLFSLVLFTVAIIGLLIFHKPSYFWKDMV
Protocol: (§1) FIG. 2: Inhibition of NTPDases and NPPs by analogues 9-12 using as substrates ATP (100 μM) for NTPDase1,2,3,8 and pNP-TMP (100 μM) for NPP1,3 (Panel A); and ATP (100 μM) was used as the substrate for NPP1 (Panel B);
(§2) At least 2 independent experiments were performed. In panel A, the activity with 100 μM ATP was set as 100%, which was 287±31, 395±67, 278±22, 119±26 nmol of Pi·min−1·mg of protein−1 for human NTPDase1, -2, -3 and -8, respectively, and the activity with 100 μM pNP-TMP was set as 100% which was 67±5, 21±1 nmol of p-nitrophenol·min−1·mg of protein−1 for human NPP1 and NPP3, respectively. In panel B, the activity with 100 μM ATP was set as 100% which was 34±7 nmol of PPi·min−1·mg of protein−1 for NPP1.

human NPP3 = target: T2, human NPP3 (Homo sapiens, UniProt O14638); test: Inhibition of human NPP3, pNP-TMP as substrate (analogues 9-12); type: biochemical; settings: analogue at 100 μM; pNP-TMP 100 μM as substrate
T2 sequence (O14638 1-875): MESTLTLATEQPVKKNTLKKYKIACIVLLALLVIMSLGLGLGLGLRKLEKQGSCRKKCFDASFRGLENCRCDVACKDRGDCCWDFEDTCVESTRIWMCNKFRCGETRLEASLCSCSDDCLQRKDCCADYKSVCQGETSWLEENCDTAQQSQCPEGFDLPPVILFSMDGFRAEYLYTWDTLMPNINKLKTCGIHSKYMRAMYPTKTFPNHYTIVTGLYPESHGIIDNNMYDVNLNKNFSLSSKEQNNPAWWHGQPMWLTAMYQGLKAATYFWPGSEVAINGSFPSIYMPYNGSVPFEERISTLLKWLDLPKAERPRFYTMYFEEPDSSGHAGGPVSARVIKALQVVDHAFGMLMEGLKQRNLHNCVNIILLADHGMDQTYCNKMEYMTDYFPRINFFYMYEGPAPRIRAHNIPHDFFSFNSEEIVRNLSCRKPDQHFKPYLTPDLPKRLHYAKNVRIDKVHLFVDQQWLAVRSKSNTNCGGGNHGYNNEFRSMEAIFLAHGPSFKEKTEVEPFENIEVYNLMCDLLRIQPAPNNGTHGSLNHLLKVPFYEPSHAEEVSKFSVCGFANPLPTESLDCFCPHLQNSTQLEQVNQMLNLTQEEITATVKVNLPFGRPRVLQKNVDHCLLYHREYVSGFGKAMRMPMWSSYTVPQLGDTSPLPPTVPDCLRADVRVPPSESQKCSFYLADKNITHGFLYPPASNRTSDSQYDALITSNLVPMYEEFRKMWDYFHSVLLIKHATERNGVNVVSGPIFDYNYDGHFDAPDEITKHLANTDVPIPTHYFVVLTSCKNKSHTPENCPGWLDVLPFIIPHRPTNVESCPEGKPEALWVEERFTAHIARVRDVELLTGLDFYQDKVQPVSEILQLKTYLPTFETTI
Protocol: as §1, §2

SMILES	decomposition ([1]; basic, pD 12.1, after 25 days)	decomposition of starting material ([1]; pD 2.1 (pH 1.7), RT, 23 days)	inhibition of human NTPDase1 (NTPDase1)	inhibition of human NPP3 (human NPP3)	decomposition ([1]; pD 2.1, after 25 days)	inhibition at 100 µM (human NPP3)	loss of compound ([1]; basic, pD 12.6, after 16 days)	decomposition ([1]; pD 1.8 (pH 1.4), 16 days, RT)
O=c1ccn([C@@H]2O[C@H](COP(=S)(S)OP(=O)(O)OP(=O)(O)O)[C@@H](O)[C@H]2O)c(=O)[nH]1 (stereo partly drawn) [Analogue 10]	24%	15%	no inhibition	no inhibition				
O=c1ccn([C@@H]2O[C@H](COP(=S)(S)OP(=O)(O)CP(=O)(O)O)[C@@H](O)[C@H]2O)c(=O)[nH]1 (stereo partly drawn) [Analogue 11]	23%		negligible effects		6%	21%		
O=c1ccn([C@@H]2O[C@H](COP(=S)(S)OP(=O)(O)OP(=O)(O)OP(=S)(S)OC[C@H]3O[C@@H](n4ccc(=O)[nH]c4=O)[C@H](O)[C@@H]3O)[C@@H](O)[C@H]2O)c(=O)[nH]1 (stereo partly drawn) [Analogue 12]			selective to NPP1			27%	13%	6%
